The values that follow come from patent US20230102520A1, “INHIBITORS OF LOW MOLECULAR WEIGHT PROTEIN TYROSINE PHOSPHATASE (LMPTP) AND USES THEREOF” (Sanford Burnham Prebys Medical Discovery Institute, priority 2019, published 2023).

Broadly, the IC50 is the point on the concentration scale where inhibition reaches its midpoint. A lower IC50 goes with greater potency in that assay.

For the assay, the target named is T1, human LMPTP-A (Homo sapiens, UniProt P24666).
T1 sequence (P24666 1-158): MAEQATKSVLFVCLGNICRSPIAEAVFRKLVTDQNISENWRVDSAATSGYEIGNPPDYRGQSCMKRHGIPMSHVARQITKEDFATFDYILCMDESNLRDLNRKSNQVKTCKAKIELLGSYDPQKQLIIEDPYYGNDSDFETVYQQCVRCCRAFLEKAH
Kind of assay: Enzyme Assay of Inhibition of LMPTP-A. The settings on record: phosphatase assay, OMFP or pNPP substrate, 50 mM Bis-Tris pH 6.0, 37° C. The format is biochemical. The protocol:
Example B-1: Enzyme Assay of Inhibition of LMPTP-A
Phosphatase assays were performed in buffer containing 50 mM Bis-Tris, pH 6.0, 1 mM DTT and 0.01% Triton X-100 at 37° C. For assays conducted with 3-O-methylfluorescein phosphate (OMFP) as substrate, fluorescence was monitored continuously at λex=485 and λem=525 nm. For assays conducted with para-nitrophenylphosphate (pNPP) as substrate, the reaction was stopped by addition of 2× reaction volume of 1 M NaOH, and absorbance was measured at 405 nm. IC50 values of compounds disclosed herein were determined from plots of inhibitor concentration versus percentage of enzyme activity. For inhibitor selectivity assays, each PTP was incubated with either 0.4 mM OMFP or 5 mM pNPP in the presence of 40 μM compound or DMSO. […] For the inhibitor reversibility assay, 50 nM human LMPTP-A was pre-incubated with 10 μM of compound disclosed herein or DMSO for 5 min. The enzyme was diluted 100× in phosphatase assay buffer containing 0.4 mM OMFP and fluorescence was measured at the indicated time points.
Turning to `Cc1ccccc1-c1nc2c(N)ncn(Cc3scnc3C)c-2n1` [3-[(4-methyl(1,3-thiazol-5-yl))methyl]-8-(2-methylphenyl)-3-hydropurine-6-ylamine], the IC50 is < 1000 nM.
As to `Nc1ncn(Cc2c(Cl)cncc2Cl)c2nc(-c3ccc4ccoc4c3)nc1-2` [8-benzo[3,4-b]furan-6-yl-3-[(3,5-dichloro(4-pyridyl))methyl]-3-hydropurine-6-ylamine], the 50% inhibitory concentration (IC50) was < 1000 nM.
With `Nc1ncn(Cc2c(Cl)cncc2Cl)c2nc(-c3nc4ccccc4[nH]3)nc1-2` [8-benzimidazol-2-yl-3-[(3,5-dichloro(4-pyridyl))methyl]-3-hydropurine-6-ylamine], the IC50 is < 1000 nM.
On to `COc1ccnc(OC)c1Cn1cnc(N)c2nc(-c3ccccc3C)nc1-2` [3-[(2,4-dimethoxy(3-pyridyl))methyl]-8-(2-methylphenyl)-3-hydropurine-6-ylamine], for which the IC50 is < 1000 nM.
Then `Nc1ncn(Cc2c(Cl)ccnc2F)c2nc(-c3ccccc3)nc1-2` [3-[(4-chloro-2-fluoro(3-pyridyl))methyl]-8-phenyl-3-hydropurine-6-ylamine], with < 1000 nM.
For the compound `Cc1ccccc1-c1nc2c(N)ncn(Cc3ccncc3Cl)c-2n1` [3-[(3-chloro(4-pyridyl))methyl]-8-(2-methylphenyl)-3-hydropurine-6-ylamine], the IC50 was < 1000 nM.
For the compound `Nc1ncn(Cc2c(Cl)cncc2Cl)c2nc(-c3cnn4ccccc34)nc1-2` [3-[(3,5-dichloro(4-pyridyl))methyl]-8-(8-hydropyrazolo[1,5-a]pyridin-3-yl)-3-hydropurine-6-ylamine], the IC50 was < 1000 nM.
With `Cn1cnc2ccc(-c3nc4c(N)ncn(Cc5c(Cl)cncc5Cl)c-4n3)cc21` [3-[(3,5-dichloro(4-pyridyl))methyl]-8-(1-methylbenzimidazol-6-yl)-3-hydropurine-6-ylamine], the IC50 was < 1000 nM.
As to `Nc1ncn(Cc2c(Br)cncc2Br)c2nc(-c3ccc4c(c3)CCCC4)nc1-2` [3-[(3,5-dibromo(4-pyridyl))methyl]-8-(2-5,6,7,8-tetrahydronaphthyl)-3-hydropurine-6-ylamine], the IC50 is < 1000 nM.
In the case of `Nc1ncn(Cc2c(Cl)ccnc2Cl)c2nc(-c3cc(F)ccc3F)nc1-2` [3-[(2,4-dichloro(3-pyridyl))methyl]-8-(2,5-difluorophenyl)-3-hydropurine-6-ylamine], the IC50 was < 1000 nM.
Take `Cc1ccccc1-c1nc2c(N)ncn(Cc3c(Cl)ccnc3F)c-2n1` [3-[(4-chloro-2-fluoro(3-pyridyl))methyl]-8-(2-methylphenyl)-3-hydropurine-6-ylamine]: the IC50 is < 1000 nM.
As for `Nc1ncn(Cc2c(Cl)cncc2Cl)c2nc(-c3ccc4c(c3)OCO4)nc1-2` [8-(2H-benzo[d]1,3-dioxolen-5-yl)-3-[(3,5-dichloro(4-pyridyl))methyl]-3-hydropurine-6-ylamine], the IC50 was < 1000 nM.
The value for `Nc1ncn(Cc2c(Cl)ccnc2Cl)c2nc(-c3ccccc3)nc1-2` [3-[(2,4-dichloro(3-pyridyl))methyl]-8-phenyl-3-hydropurine-6-ylamine] was < 1000 nM; that for `Nc1ccncc1-c1nc2c(N)ncn(Cc3c(Cl)cncc3Cl)c-2n1` [8-(4-amino(3-pyridyl))-3-[(3,5-dichloro(4-pyridyl))methyl]-3-hydropurine-6-ylamine] was 1000 to 20000 nM; that for `COc1cccc(OC)c1-c1nc2c(N)ncn(Cc3c(Cl)ncc(Cl)c3Cl)c-2n1` [8-(2,6-dimethoxyphenyl)-3-[(2,4,5-trichloro(3-pyridyl))methyl]-3-hydropurine-6-ylamine] was < 1000 nM.
As to “3-[(4-iodo-2-methoxy(3-pyridyl))methyl]-8-(2-methylphenyl)-3-hydropurine-6-ylamine”, the IC50 is < 1000 nM.
Regarding `Cc1ccccc1-c1nc2c(N)ncn(Cc3sccc3Cl)c-2n1` [3-[(3-chloro(2-thienyl))methyl]-8-(2-methylphenyl)-3-hydropurine-6-ylamine], the IC50 is < 1000 nM.
Regarding `Cc1ccccc1-c1nc2c(N)ncn(Cc3cccnc3C)c-2n1` [3-[(2-methyl(3-pyridyl))methyl]-8-(2-methylphenyl)-3-hydropurine-6-ylamine], the IC50 was < 1000 nM.
For the compound `Nc1ncn(Cc2c(Cl)cncc2Cl)c2nc(-c3cccc4c3CCCC4)nc1-2` [3-[(3,5-dichloro(4-pyridyl))methyl]-8-(5,6,7,8-tetrahydronaphthyl)-3-hydropurine-6-ylamine], the IC50 is > 20000 nM.
As to `Cc1ccccc1-c1nc2c(N)nc(C)n(Cc3c(Br)cncc3Br)c-2n1` [3-[(3,5-dibromo(4-pyridyl))methyl]-2-methyl-8-(2-methylphenyl)-3-hydropurine-6-ylamine], the IC50 lay in the range of 1000 to 20000 nM.
As to `Cc1nc(C)c(Cn2cnc(N)c3nc(-c4ccccc4C)nc2-3)s1` [3-[(2,4-dimethyl(1,3-thiazol-5-yl))methyl]-8-(2-methylphenyl)-3-hydropurine-6-ylamine], the IC50 is < 1000 nM.
`Cc1ccccc1-c1nc2c(N)ncn(Cc3c(Cl)ncnc3Cl)c-2n1` [3-[(4,6-dichloropyrimidin-5-yl)methyl]-8-(2-methylphenyl)-3-hydropurine-6-ylamine]: the IC50 was < 1000 nM.
Take `Nc1ncn(Cc2c(Cl)ncnc2Cl)c2nc(-c3ccccc3)nc1-2` [3-[(4,6-dichloropyrimidin-5-yl)methyl]-8-phenyl-3-hydropurine-6-ylamine]: the IC50 is < 1000 nM.
Take `Cc1cc(-c2nc3c(N)ncn(Cc4c(Cl)ccnc4Cl)c-3n2)n(C)n1` [3-[(2,4-dichloro(3-pyridyl))methyl]-8-(1,3-dimethylpyrazol-5-yl)-3-hydropurine-6-ylamine]: the IC50 is < 1000 nM.
For the compound `Nc1ncn(Cc2c(Cl)cncc2Cl)c2nc(-c3ccn4nccc4c3)nc1-2` [3-[(3,5-dichloro(4-pyridyl))methyl]-8-(8-hydropyrazolo[1,5-a]pyridin-5-yl)-3-hydropurine-6-ylamine], the IC50 was < 1000 nM.
For `Cc1ccccc1-c1nc2c(N)ncn(Cc3ccncc3F)c-2n1` [3-[(3-fluoro(4-pyridyl))methyl]-8-(2-methylphenyl)-3-hydropurine-6-ylamine], the concentration for half-maximal inhibition (IC50) was < 1000 nM.
`Cc1ccccc1-c1nc2c(N)nc(C)n(Cc3c(Cl)cncc3Cl)c-2n1` [3-[(3,5-dichloro(4-pyridyl))methyl]-2-methyl-8-(2-methylphenyl)-3-hydropurine-6-ylamine]: the IC50 lay in the range of 1000 to 20000 nM.
The value for `Nc1ncn(Cc2sccc2Cl)c2nc(-c3ccccc3)nc1-2` [3-[(3-chloro(2-thienyl))methyl]-8-phenyl-3-hydropurine-6-ylamine] was < 1000 nM.
On to `Nc1ncn(Cc2c(Br)cncc2Br)c2nc(-c3ccccc3)nc1-2` [3-[(3,5-dibromo(4-pyridyl))methyl]-8-phenyl-3-hydropurine-6-ylamine], for which the IC50 is < 1000 nM.
Regarding “3-[(3,5-dichloro(4-pyridyl))methyl]-8-(2-5,6,7,8-tetrahydronaphthyl)-3-hydropurine-6-ylamine”, the IC50 is < 1000 nM.
In the case of `Nc1ncn(Cc2c(Cl)ccnc2Cl)c2nc(C3C4CC5CC(C4)CC3C5)nc1-2` (stereo not shown) [8-adamantan-2-yl-3-[(2,4-dichloro(3-pyridyl))methyl]-3-hydropurine-6-ylamine], the IC50 was < 1000 nM.
For `Nc1ncn(Cc2c(Cl)cncc2Cl)c2nc(-c3ccc4occc4c3)nc1-2` [8-benzo[b]furan-5-yl-3-[(3,5-dichloro(4-pyridyl))methyl]-3-hydropurine-6-ylamine], the IC50 is < 1000 nM.
For the compound “3-[(3,5-diiodo(4-pyridyl))methyl]-8-(2-methylphenyl)-3-hydropurine-6-ylamine”, the IC50 is < 1000 nM.
Take `Nc1ncn(Cc2c(Br)ccnc2Cl)c2nc(-c3ccccc3)nc1-2` [3-[(4-bromo-2-chloro(3-pyridyl))methyl]-8-phenyl-3-hydropurine-6-ylamine]: the IC50 was < 1000 nM.
The value for `Cc1ccccc1-c1nc2c(N)ncn(Cc3cncc(Cl)c3)c-2n1` [3-[(5-chloro(3-pyridyl))methyl]-8-(2-methylphenyl)-3-hydropurine-6-ylamine] was < 1000 nM; that for `Cn1ncc(Br)c1Cn1cnc(N)c2nc(-c3ccccc3)nc1-2` [3-[(4-bromo-1-methylpyrazol-5-yl)methyl]-8-phenyl-3-hydropurine-6-ylamine] was < 1000 nM.
Compound `Cc1ccccc1-c1nc2c(N)nc(C)n(Cc3c(Br)cnn3C)c-2n1` [3-[(4-bromo-1-methylpyrazol-5-yl)methyl]-2-methyl-8-(2-methylphenyl)-3-hydropurine-6-ylamine] registered an IC50 of 1000 to 20000 nM.
Take `Nc1ncn(Cc2c(Cl)ccnc2Cl)c2nc(-c3ccc4ncsc4c3)nc1-2` [8-benzothiazol-6-yl-3-[(2,4-dichloro(3-pyridyl))methyl]-3-hydropurine-6-ylamine]: the IC50 was < 1000 nM.
As to `Cc1ccccc1-c1nc2c(N)ncn(Cc3c(Cl)cnc(Cl)c3Cl)c-2n1` [8-(2-methylphenyl)-3-[(2,3,5-trichloro(4-pyridyl))methyl]-3-hydropurine-6-ylamine], the IC50 was < 1000 nM.
The value for `COc1nccc(I)c1Cn1cnc(N)c2nc(-c3ccccc3)nc1-2` [3-[(4-iodo-2-methoxy(3-pyridyl))methyl]-8-phenyl-3-hydropurine-6-ylamine] was < 1000 nM.
